Patent EP0102195A2, “Substituted aza bicycloalkyl derivatives with dopamine antagonist activity” (BEECHAM GROUP PLC, priority 1982, dated 1984)

Columns and labels:
Heidenhain pouch = Heidenhain pouch test (gastric motility enhancing activity); type: in vivo, Male Beagle dogs; details: Beagle dogs; for period of activity: Heidenhain pouch
dog = test: Anti-emetic activity in the dog (apomorphine-induced vomiting); type: in vivo; details: for ED50: Canis lupus familiaris, sc, 30 minutes prior to apomorphine HCl 0.1 mg/kg subcutaneously, vomiting response
Procedure: Compounds were administered subcutaneously 30 minutes prior to administration of a standard dose of apomorphine HCl (0.1 mg/kg subcutaneously) and the vomiting response compared to that obtained when the same animals were dosed with apomorphine HC1 and vehicle only.

Dopamine receptor = test: Inhibition of apomorphine induced climbing in the mouse (central dopamine receptor blocking activity); type: in vivo; details: apomorphine 1 mg/kg s.c.
rats = test: Increase in intragastric pressure (gastric motility enhancing activity); type: in vivo; details: 0.5 mg/kg s.c.; conscious restrained rats; average height of pressure waves, 40 minutes post dose vs pre-dose, Student's t test
Procedure: Intragastric pressure changes were recorded from previously starved conscious but restrained rats using a saline filled catheter inserted into the lumen of the stomach via a permanent gastric fistula. The catheter was connected to a physiological pressure transducer and pressure changes recorded on a hot wire pen recorder. In each animal a pre-dose period of 40 minutes was allowed to obtain a measure of spontaneous activity. An index of activity was obtained by measuring the average height of pressure waves during 10 minute periods. Values for 4 such periods were obtained during assessment of spontaneous activity and for 40 minute period after administration of compound. Student's "t" test was applied to the difference in average values obtained for spontaneous and post compound activity.

Structure (SMILES) | motility of the pouch (activity) (Heidenhain pouch; dose of 0.5 mg/kg s.c.) | ED50 (dog) [mg/kg] | inhibition of apomorphine induced climbing (Dopamine receptor; dose of 10 mg/kg s.c.) | index of activity post administration (rats) | period of activity (Heidenhain pouch) | other results
CN(C)c1ccc(S(=O)(=O)N(C)C)cc1C(=O)N[C@@H]1C[C@H]2CC[C@@H](C1)N2Cc1ccccc1 [Example 2, 2-Dimethylamino-5-dimethylaminosulphonyl-ls(3'6-(8'-benzyl-8'-azabicyclo{3.2.1]octyl)]-benzamide] | active | 0.1 | inactive | – | – | –
CNc1ccc(S(=O)(=O)N(C)C)cc1C(=O)N[C@@H]1C[C@H]2CC[C@@H](C1)N2Cc1ccccc1 [Example 3, 5-Dimethylaminosulphonyl-2-methylamino-N(3'β(8'-benzyl-8'-azabicyclo{3.2.1}octyl)]benzamide] | – | – | – | significantly increased | greater than 1 hour | motility of the pouch (activity) (Heidenhain pouch; dose of 0.1 mg/kg s.c.): active; inhibition of apomorphine induced climbing (Dopamine receptor; dose of 25 mg/kg s.c.): inactive
CCOC(=O)N(C)c1ccc(S(=O)(=O)N(C)C)cc1C(=O)N[C@@H]1C[C@H]2CC[C@@H](C1)N2Cc1ccccc1 [Example 4, 5-Dimethylaminosulphonyl-2-(N-methyl-N-ethoxycarbonyl)amino-N [3'8-(8'-benzyl-8'-azabicyclo{3.2.1]octyl)] benzamide] | – | – | inactive | – | – | –
CCNc1ccc(S(=O)(=O)N(C)C)cc1C(=O)N[C@@H]1C[C@H]2CC[C@@H](C1)N2Cc1ccccc1 [Example 5, 5-Dimethylaminosulphonyl-2-ethylamino-N[3 ε'-(8' -benzyl-8' -azabicyclo'{3.2.1)octyl)]-benzamide] | – | – | inactive | significantly increased | – | –
CN(C)S(=O)(=O)c1ccc(NC2CC2)c(C(=O)N[C@@H]2C[C@H]3CC[C@@H](C2)N3Cc2ccccc2)c1 [Example 6] | active | 0.5 | inactive | significantly increased | greater than 1 hour | –
CNc1cccc(OC)c1C(=O)N[C@@H]1C[C@H]2CC[C@@H](C1)N2Cc1ccccc1 [Example 12, 2-Methylamino-6-methoxy-N-[3β-(8-benzyl-8-azabicyclo (3,2,1)octyl)]benzamide] | – | – | – | – | – | anti-emetic activity (dog; dose of 0.01 mg/kg s.c., apomorphine HCl 0.1 mg/kg subcutaneously): active
